# According to paper PMC3252747 (Bioorganic & medicinal chemistry letters, 2009):
# Target: cloned h5-HT2A receptor (Homo sapiens, UniProt P28223)
# Assay: 5-HT2A competitive radioligand binding assay
# Settings: ratio of H1 Ki to 5-HT2A Ki
# cloned h5-HT2A receptor, sequence (P28223 whole entry): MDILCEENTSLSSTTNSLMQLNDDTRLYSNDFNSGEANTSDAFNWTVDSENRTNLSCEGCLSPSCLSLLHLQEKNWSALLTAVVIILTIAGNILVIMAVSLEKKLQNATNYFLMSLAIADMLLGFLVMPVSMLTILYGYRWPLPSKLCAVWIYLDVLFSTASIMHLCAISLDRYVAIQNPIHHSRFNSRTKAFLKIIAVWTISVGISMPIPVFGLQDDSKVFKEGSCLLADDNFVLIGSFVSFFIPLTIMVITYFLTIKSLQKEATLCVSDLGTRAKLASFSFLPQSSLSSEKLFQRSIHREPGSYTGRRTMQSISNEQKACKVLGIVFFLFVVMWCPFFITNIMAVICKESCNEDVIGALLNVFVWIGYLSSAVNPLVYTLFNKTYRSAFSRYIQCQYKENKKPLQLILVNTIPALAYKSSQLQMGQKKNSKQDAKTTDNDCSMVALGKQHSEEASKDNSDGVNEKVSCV
compound,measurement,value
"COc1ccc2c3c(ccc2c1)Cc1ccccc1C3CN (stereo not shown) [Compound 2b, (7,12-dihydrotetraphene-3-methoxy-12-yl)methanamine]",selectivity for 5-HT2A over the H1 receptor,100 fold
